Reference: PubChem BioAssay (NCI)
Several values for one entry are separate records, joined by “and”; a condition that tells them apart may be missing. Equal values may be shown once.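 Compound exposure: 48 hours, 5 concentrations, 96-well plates. Here, GI50 denotes the concentration required for 50% inhibition of growth. Definition used: TGI = concentration required for complete inhibition of growth.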

What was measured:
Test in all cases: growth of human tumour cells (NCI), 48 h
SK-MEL-28 melanoma = test system: SK-MEL-28 melanoma
IGROV1 ovarian = test system: IGROV1 ovarian
SNB-19 CNS = test system: SNB-19 CNS
ACHN renal = test system: ACHN renal
OVCAR-4 ovarian = test system: OVCAR-4 ovarian
HT29 colon = test system: HT29 colon
HCT-116 colon = test system: HCT-116 colon
MDA-MB-231 breast = test system: MDA-MB-231 breast
786-0 renal = test system: 786-0 renal
NCI-H460 lung = test system: NCI-H460 lung

Row | Structure (SMILES) | GI50 (SK-MEL-28 melanoma) [µM] | TGI (SK-MEL-28 melanoma) [µM] | GI50 (IGROV1 ovarian) | TGI (IGROV1 ovarian) | GI50 (SNB-19 CNS) | TGI (SNB-19 CNS) | GI50 (ACHN renal) | TGI (ACHN renal) | GI50 (OVCAR-4 ovarian) [µM] | TGI (OVCAR-4 ovarian) [µM] | GI50 (HT29 colon) | TGI (HT29 colon) [µM] | GI50 (HCT-116 colon) | TGI (HCT-116 colon) [µM] | GI50 (MDA-MB-231 breast) | TGI (MDA-MB-231 breast) | GI50 (786-0 renal) | TGI (786-0 renal) | GI50 (NCI-H460 lung) | TGI (NCI-H460 lung)
1 | COc1cc2c3c(n(CCCN4CCC(N)CC4)c(=O)c2cc1OC)-c1cc2c(cc1C3=O)OCO2 | 0.983 | 2.9 | 1.7 µM | 16 µM | 1.46 µM | 8.7 µM | 0.336 µM | 1.24 µM | 0.211 | 1.27 | 0.621 µM | 9.81 | 0.119 µM | 0.807 | 0.682 µM | 1.36 µM | 0.763 µM | 2.38 µM | 0.184 µM | 0.858 µM
2 | Cc1ccc([N+](=O)[O-])c2c(NCCCN(C)C)ccnc12 | – | > 100 | – | 91.8 µM | – | > 100 µM | – | > 100 µM | – | > 76.9 | – | > 90.7 | – | > 100 | – | > 100 µM | – | > 100 µM | – | 76.1 µM
3 | NCCN1CCN(c2nccc(-c3ccc4ccccc4c3)n2)CC1 | 1.85 | 3.42 | 1.97 µM | 4.12 µM | 2.26 µM | 5.98 µM | 1.71 µM | 3.29 µM | 2.41 | 7.5 | 1.93 µM | 3.77 | 1.79 µM | 3.3 | 1.66 µM | 3.31 µM | 1.69 µM | 3.17 µM | 1.91 µM | 3.69 µM
4 | C=C(C)[C@@H]1CC[C@@]2(C(=O)O)CC[C@]3(C)C(CCC4[C@@]5(C)CCC(OS(=O)(=O)c6ccccc6)C(C)(C)C5CC[C@]43C)C12 (stereo not given in full) | 9.9 | 22.4 | 10.4 µM | 31.2 µM | 10.1 µM | 32.7 µM | 4.42 µM | 20.6 µM | 4.49 | 28.5 | 5.52 µM | 18 | 2.9 µM | 13.1 | 8.58 µM | 25.6 µM | 4.73 µM | 19 µM | 3.36 µM | 15.5 µM
5 | FC(F)(F)c1ccc2c(Nc3cccc(C4CC(c5ccccc5)=NN4c4ccc(Cl)cc4)c3)ccnc2c1 (stereo not given) | 4.54 | 18.3 | 2.57 µM | 11 µM | 4.38 µM | 27 µM | 2.9 µM | 11.1 µM | 4.99 | 28.9 | 3.3 µM | 12.5 | 1.62 µM | 3.63 | 3.88 µM | 15.9 µM | 2.73 µM | 10.7 µM | 4.08 µM | 17.2 µM
6 | COc1cc(-c2cn(C)c(=O)c(C)c2C)cc(OC)c1CN1CC[C@H](N2CCN(c3ccc(N[C@H]4CCC(=O)NC4=O)cc3F)CC2)C(F)(F)C1 | 15.6 | 30.9 | 13.8 µM | 34.3 µM | 14.8 µM | 31.6 µM | 15.2 µM | 28.8 µM | 12.1 | 26.9 | 11.4 µM | 27.2 | 13.1 µM | 27.7 | 11.5 µM | 25.4 µM | 12.8 µM | 36.6 µM | 15.5 µM | 32.4 µM
7 | Clc1ccc(OCc2nnc3n2N=C(c2ccc(Cl)cc2Cl)CS3)c(Cl)c1 | 22.6 | 57 | 20 µM | 52.9 µM | 34.3 µM | > 100 µM | 20.5 µM | 49.9 µM | 28.1 | > 100 | 24.4 µM | 83.3 | 15.2 µM | 32.8 | 14.9 µM | 38.3 µM | 28.5 µM | 98.8 µM | 19.3 µM | 56.3 µM
8 | CCn1c(-c2nonc2N)nc2ccc(F)cc21 | > 25 | > 25 | > 25 µM | > 25 µM | > 25 µM | > 25 µM | > 25 µM | > 25 µM | > 25 | > 25 | > 25 µM | > 25 | > 25 µM | > 25 | > 25 µM | > 25 µM | > 25 µM | > 25 µM | > 25 µM | > 25 µM
9 | O=P(O)(O)C(O)(Cn1ccnc1)P(=O)(O)O | > 62.8 | > 100 | 53.5 µM | > 100 µM | > 81.2 µM | > 100 µM | > 46.2 µM | > 84.8 µM | > 100 | > 100 | > 90.6 µM | > 100 | > 53.8 µM | > 77.9 | > 40.6 µM | > 57 µM | 19 µM | > 70 µM | > 100 µM | > 100 µM
10 | CCCNCc1cc(C)cc2c1nc(N1CCNCC1)n2Cc1cc(C)c(F)c(C)c1 | 1.84 | 3.54 | 10.3 µM | 25.1 µM | 2.41 µM | 7.18 µM | 4.37 µM | 15.5 µM | 7.12 | 21.8 | 2.09 µM | 5.29 | 2.19 µM | 4.54 | 1.61 µM | 3.8 µM | 1.86 µM | 3.96 µM | 1.93 µM | 4.03 µM
11 | CC(=O)[CH-]C(C)=O.CC(=O)[CH-]C(C)=O.N=CC=N.[Sn+2] | 1.92 | 4.27 | 9.53 µM | 22.4 µM | 14.6 µM | 27.8 µM | 3.2 µM | 9.77 µM | 2.62 | 10.5 | 3.41 µM | 10.8 | 1.72 µM | 3.42 | 2.72 µM | 9.87 µM | 1.76 µM | 3.23 µM | 3.9 µM | 10.8 µM
12 | Oc1c(Br)cc(CN(Cc2cc(Br)c(O)c(Br)c2)C2CCCCC2)cc1Br | – | > 100 | – | > 100 µM | – | > 100 µM | – | > 100 µM | – | > 100 | – | > 100 | – | > 100 | – | > 100 µM | – | > 100 µM | – | –
13 | CNc1nc(NC2CCCC2)nc(Sc2ccc(OC)cc2)n1 | > 10 | > 10 | > 10 µM | > 10 µM | > 10 µM | > 10 µM | > 10 µM | > 10 µM | > 10 | > 10 | > 10 µM | > 10 | > 10 µM | > 10 | > 10 µM | > 10 µM | > 10 µM | > 10 µM | > 10 µM | > 10 µM
14 | CC(=O)O[C@H]1C(=O)[C@@]2(C)[C@H]([C@H](OC(=O)c3ccccc3)[C@]3([O-])C[C@H](OC(=O)[C@H]([O-])[C@@H](NC(=O)c4ccccc4)c4ccccc4)C(C)=C1C3(C)C)[C@]1(OC(C)=O)CO[C@@H]1C[C@@H]2[O-].[Fe+3] | 13.2 | 64.8 | 0.0426 µM and 0.211 µM | 65 µM and 72.5 µM | 0.281 µM and 0.534 µM | 65 µM and > 100 µM | 2.48 µM and 2.96 µM | 65 µM and > 100 µM | 0.719 | > 100 | 0.0236 µM and 0.0328 µM | – | 0.0253 µM and 0.0388 µM | – | 0.746 µM and 0.732 µM | 63.9 µM and 32.2 µM | 0.261 µM and 2.24 µM | 49.1 µM and > 100 µM | 0.0266 µM and 0.0498 µM | 65 µM and 25.5 µM
15 | Cc1ccc2/c(=C/c3ccc(N(C)C)cc3)c3cc(-c4ccccc4)[n+](C)n3c2c1 | 0.146 | 3.7 | 0.501 µM | – | 0.0969 µM | > 44.1 µM | 0.175 µM | – | 0.816 | 20.2 | 0.0411 µM | > 100 | 0.0406 µM | > 100 | 0.0337 µM | 1.06 µM | 0.305 µM | 2.92 µM | 0.025 µM | 1.38 µM
16 | C=CC(=O)Nc1cccc(Nc2nc(Nc3ccc(OCCOC)cc3)ncc2F)c1 | 5.62 | 24.4 | 1.66 µM | 5.45 µM | 3.91 µM | 37.4 µM | 0.454 µM | 2.84 µM | 0.824 | 17.1 | 2.6 µM | 16.3 | 1.82 µM | 13.1 | 2.85 µM | 24.7 µM | 0.887 µM | 13.1 µM | 2.28 µM | 14.5 µM
17 | CNC(=O)c1cn(C[C@H](F)CCc2ccc(NC(=O)Cc3cc(OC4CC(F)(F)C4)cc(C)n3)nn2)nn1 | > 100 | > 100 | > 100 µM | > 100 µM | > 100 µM | > 100 µM | > 100 µM | > 100 µM | > 100 | > 100 | > 100 µM | > 100 | > 100 µM | > 100 | > 100 µM | > 100 µM | > 100 µM | > 100 µM | > 100 µM | > 100 µM
18 | Cc1ccsc1C(=S)Nc1ccc(Cl)c(C(=O)OC(C(C)C)C(C)C)c1 | – | > 100 | – | > 100 µM | – | 91.7 µM | – | > 100 µM | – | > 100 | – | 71.6 | – | 75.5 | – | 71.3 µM | – | > 100 µM | – | > 100 µM
19 | COC(=O)C(Cc1ccccc1)N/C=C\C(=O)c1ccc(Cl)cc1 (stereo not given) | 45.4 | > 100 | > 100 µM | > 100 µM | 38 µM | > 100 µM | 23.6 µM | 54.9 µM | 50.4 | > 100 | 35.1 µM | > 100 | 16.4 µM | 36.9 | 14.4 µM | 40.9 µM | 23.6 µM | 61.9 µM | 20.5 µM | 48.2 µM
